Experimental data from patent US6737383B1, “Herbicidal oxadiazolidines” (priority 1999, dated 2004).

Tests used:
[1] = tested on: rice; assay: Test B flood test rice; format: in vivo, Oryza sativa
Procedure, shortened: (§1)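 Flood test on plants grown to the 2-leaf stage; treated plants kept in greenhouse twelve to sixteen days, then visually rated against controls on a 0 (no effect) to 10 (complete control) scale.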

[2] = tested on: cocklebur; assay: Test B pre/postemergence cocklebur; format: in vivo, Xanthium strumarium
Procedure, shortened: (§2)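 Test chemicals in a non-phytotoxic solvent mixture with surfactant were sprayed preemergence onto planted seeds and postemergence onto plants 2 to 18 cm tall (1- to 4-leaf stage). After twelve to sixteen days in a greenhouse, injury was visually rated against untreated controls from 0 (no effect) to 10 (complete control).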

[3] = tested on: wheat; assay: Test B pre/postemergence wheat; format: in vivo, Triticum aestivum
Procedure, shortened: as §2

[4] = tested on: bedstraw; assay: Test B pre/postemergence bedstraw; format: in vivo, Galium aparine; settings: scale of 0 to 10 where 0 is no effect and 10 is complete control
Procedure, shortened: as §2

[5] = tested on: surinam grass; assay: Test B pre/postemergence surinam grass; format: in vivo, Brachiaria decumbens
Procedure, shortened: as §2

[6] = tested on: crabgrass; assay: Test B pre/postemergence crabgrass; format: in vivo, Digitaria sanguinalis
Procedure, shortened: as §2

[7] = tested on: giant foxtail; assay: Test B pre/postemergence giant foxtail; format: in vivo, Setaria faberii
Procedure, shortened: as §2

[8] = tested on: duck salad; assay: Test B flood test duck salad; format: in vivo, Heteranthera limosa
Procedure, shortened: as §1

[9] = tested on: purple nutsedge; assay: Test B pre/postemergence purple nutsedge; format: in vivo, Cyperus rotundus
Procedure, shortened: as §2

[10] = tested on: pigweed; assay: Test B pre/postemergence pigweed; format: in vivo, Amaranthus retroflexus
Procedure, shortened: as §2

[11] = tested on: corn; assay: Test B pre/postemergence corn; format: in vivo, Zea mays
Procedure, shortened: as §2

[12] = tested on: velvetleaf; assay: Test B pre/postemergence velvetleaf; format: in vivo, Abutilon theophrasti
Procedure, shortened: as §2

[13] = tested on: soybean; assay: Test B pre/postemergence soybean; format: in vivo, Glycine max
Procedure, shortened: as §2

[14] = tested on: wild oat; assay: Test B pre/postemergence wild oat; format: in vivo, Avena fatua
Procedure, shortened: as §2

[15] = tested on: blackgrass; assay: Test B pre/postemergence blackgrass; format: in vivo, Alopecurus myosuroides
Procedure, shortened: as §2

[16] = tested on: sugar beet; assay: Test B pre/postemergence sugar beet; format: in vivo, Beta vulgaris
Procedure, shortened: as §2

[17] = Rate 62 g/ha, flood test species, Pre-emergence, visual evaluation after twelve to sixteen days
[18] = Rate 125 g/ha, under heading Pre-emergence, flood test species, visual evaluation after twelve to sixteen days
[19] = Rate 250 g/ha, Pre-emergence, flood-test species, scale 0 to 10, 0 is no effect, 10 is complete control
[20] = Rate 500 g/ha, Pre-emergence, flood test species, scale 0 to 10 (0 no effect, 10 complete control)
[21] = Postemergence, Rate 125 g/ha, scale 0 to 10, 0 is no effect, 10 is complete control
[22] = Postemergence, Rate 250 g/ha, scale 0 to 10, 0 is no effect, 10 is complete control
[23] = Postemergence, Rate 500 g/ha, scale of 0 to 10 where 0 is no effect and 10 is complete control
[24] = Preemergence, Rate 62 g/ha, scale 0 to 10 (0 no effect, 10 complete control)
[25] = Preemergence, Rate 125 g/ha, scale of 0 to 10 where 0 is no effect and 10 is complete control
[26] = Preemergence, Rate 250 g/ha, scale of 0 to 10 where 0 is no effect and 10 is complete control
[27] = Rate 62 g/ha, Postemergence, scale of 0 to 10 where 0 is no effect and 10 is complete control
[28] = Preemergence, Rate 500 g/ha, scale of 0 to 10 where 0 is no effect and 10 is complete control

Structure (SMILES): CC(C)N(C(=O)n1oc(=O)n(C(CF)CF)c1=O)c1ccc(F)cc1 [Compound 390]
- Plant response rating, Rice (0 to 10 scale, 0 is no effect, 10 is complete control) [1, 17]: 1
- Rice plant response rating (0 to 10 scale, 0 is no effect, 10 is complete control) [1, 18]: 1
- Rice plant response rating [1, 19]: 1
- Rice plant response rating [1, 20]: 4
- Plant response rating, Cocklebur [2, 21]: 0
- Plant response rating, Cocklebur [2, 22]: 3
- Cocklebur plant response rating [2, 23]: 7
- Plant response rating, Cocklebur [2, 24]: 0
- Plant response rating, Cocklebur [2, 25]: 0
- Cocklebur plant response rating [2, 26]: 2
- Cocklebur plant response rating [2, 27]: 0
- Plant response rating, Wheat [3, 22]: 3
- Wheat plant response rating [3, 23]: 7
- Plant response rating, Wheat [3, 24]: 0
- Plant response rating, Wheat [3, 25]: 4
- Wheat plant response rating [3, 26]: 8
- Wheat plant response rating [3, 28]: 9
- Wheat plant response rating [3, 27]: 0
- Bedstraw plant response rating ([4]; Postemergence, Rate 500 g/ha): 7
- Plant response rating, Bedstraw ([4]; Preemergence, Rate 125 g/ha): 0
- Plant response rating, B. signalgrass [5, 21]: 5
- Plant response rating, B. signalgrass [5, 22]: 5
- B. signalgrass plant response rating [5, 23]: 8
- Plant response rating, B. signalgrass [5, 24]: 1
- Plant response rating, B. signalgrass [5, 25]: 5
- B. signalgrass plant response rating [5, 26]: 9
- B. signalgrass plant response rating [5, 28]: 10
- B. signalgrass plant response rating [5, 27]: 2
- Plant response rating, Crabgrass [6, 21]: 7
- Plant response rating, Crabgrass [6, 22]: 7
- Crabgrass plant response rating [6, 23]: 9
- Plant response rating, Crabgrass [6, 24]: 8
- Plant response rating, Crabgrass [6, 25]: 9
- Crabgrass plant response rating [6, 26]: 10
- Crabgrass plant response rating [6, 28]: 10
- Crabgrass plant response rating [6, 27]: 2
- Plant response rating, Giant foxtail [7, 21]: 9
- Plant response rating, Giant foxtail [7, 22]: 9
- Giant foxtail plant response rating [7, 23]: 10
- Plant response rating, Giant foxtail [7, 24]: 10
- Plant response rating, Giant foxtail [7, 25]: 10
- Giant foxtail plant response rating [7, 26]: 10
- Giant foxtail plant response rating [7, 28]: 10
- Giant foxtail plant response rating [7, 27]: 9
- Plant response rating, Ducksalad (0 to 10 scale, 0 is no effect, 10 is complete control) [8, 17]: 0
- Ducksalad plant response rating (0 to 10 scale, 0 is no effect, 10 is complete control) [8, 18]: 0
- Ducksalad plant response rating [8, 19]: 0
- Ducksalad plant response rating [8, 20]: 3
- Plant response rating, Nutsedge [9, 22]: 3
- Plant response rating, Nutsedge [9, 24]: 0
- Plant response rating, Nutsedge [9, 25]: 0
- Nutsedge plant response rating [9, 26]: 0
- Nutsedge plant response rating [9, 28]: 2
- Nutsedge plant response rating [9, 27]: 0
- Plant response rating, Redroot pigweed [10, 22]: 9
- Redroot pigweed plant response rating [10, 23]: 9
- Plant response rating, Redroot pigweed [10, 24]: 8
- Plant response rating, Redroot pigweed [10, 25]: 9
- Redroot pigweed plant response rating [10, 26]: 10
- Redroot pigweed plant response rating [10, 28]: 10
- Redroot pigweed plant response rating [10, 27]: 2
- Plant response rating, Corn [11, 21]: 0
- Plant response rating, Corn [11, 22]: 0
- Corn plant response rating [11, 23]: 0
- Plant response rating, Corn [11, 24]: 0
- Plant response rating, Corn [11, 25]: 3
- Corn plant response rating [11, 28]: 7
- Corn plant response rating [11, 27]: 0
- Plant response rating, Velvetleaf [12, 22]: 7
- Velvetleaf plant response rating [12, 23]: 8
- Plant response rating, Velvetleaf [12, 24]: 2
- Plant response rating, Velvetleaf [12, 25]: 4
- Velvetleaf plant response rating [12, 26]: 6
- Velvetleaf plant response rating [12, 28]: 7
- Velvetleaf plant response rating [12, 27]: 0
- Plant response rating, Soybean [13, 22]: 3
- Soybean plant response rating [13, 23]: 5
- Plant response rating, Soybean [13, 24]: 0
- Plant response rating, Soybean [13, 25]: 0
- Soybean plant response rating [13, 26]: 2
- Soybean plant response rating [13, 28]: 3
- Soybean plant response rating [13, 27]: 2
- Plant response rating, Wild oats [14, 22]: 7
- Wild oats plant response rating [14, 23]: 9
- Plant response rating, Wild oats [14, 24]: 3
- Plant response rating, Wild oats [14, 25]: 6
- Wild oats plant response rating [14, 26]: 10
- Wild oats plant response rating [14, 28]: 10
- Wild oats plant response rating [14, 27]: 0
- Plant response rating, Blackgrass [15, 22]: 9
- Blackgrass plant response rating [15, 23]: 9
- Plant response rating, Blackgrass [15, 24]: 6
- Plant response rating, Blackgrass [15, 25]: 9
- Blackgrass plant response rating [15, 26]: 9
- Blackgrass plant response rating [15, 28]: 10
- Blackgrass plant response rating [15, 27]: 8
- Plant response rating, Sugarbeets [16, 22]: 5
- Sugarbeets plant response rating [16, 23]: 7
- Plant response rating, Sugarbeets [16, 24]: 5
- Plant response rating, Sugarbeets [16, 25]: 7
- Sugarbeets plant response rating [16, 26]: 8
- Sugarbeets plant response rating [16, 28]: 8
- Sugarbeets plant response rating [16, 27]: 0
